Assays:
RXRΓ = biological target: T1, RXRΓ (Homo sapiens, UniProt P48443); test: Ligand binding assay, RXRΓ
T1 construct: made in house; host or cells: Baculovirus expression (insect cell extract)
T1 sequence (P48443 1-463): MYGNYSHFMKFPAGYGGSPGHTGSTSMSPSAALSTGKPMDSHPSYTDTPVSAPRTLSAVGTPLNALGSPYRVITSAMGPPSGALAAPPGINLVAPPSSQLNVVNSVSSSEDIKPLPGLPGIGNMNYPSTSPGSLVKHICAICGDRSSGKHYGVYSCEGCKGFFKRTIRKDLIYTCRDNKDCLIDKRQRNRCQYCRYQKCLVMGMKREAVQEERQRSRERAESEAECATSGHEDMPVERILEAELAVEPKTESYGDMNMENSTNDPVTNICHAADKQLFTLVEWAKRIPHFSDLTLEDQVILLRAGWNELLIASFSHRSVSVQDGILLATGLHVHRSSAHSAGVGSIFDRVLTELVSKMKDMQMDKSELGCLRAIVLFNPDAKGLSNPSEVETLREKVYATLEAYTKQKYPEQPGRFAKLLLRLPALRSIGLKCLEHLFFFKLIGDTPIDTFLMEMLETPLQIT
Procedure: (§1) All binding assays were performed in a similar fashion. All six receptor types were derived from the expressed receptor type (RARα, β, Γ and RXRα, β, Γ) expressed in Baculovirus. Stock solutions of all compounds were prepared as 10 mM ethanol solutions and serial dilutions carried out into 1:1 DMSO; ethanol. Assay buffers consisted of the following for all six receptor assays: 8% glycerol, 120 mM KCl 8 mM Tris, 5 mM CHAPS 4 mM DTT and 0.24 mM PMSF, pH-7.4@ room temperature.
(§2) All receptor binding assays were performed in the same manner. The final assay volume was 250 μl and contained from 10-40 μg of extract protein depending on receptor being assayed along with 5 nM of [^3H] all-trans retinoic acid or 10 nM [^3H] 9-cis retinoic acid and varying concentrations of competing ligand at concentrations that ranged from 0-10^−5 M. The assays were formatted for a 96 well minitube system. Incubations were carried out at 4° C. until equilibrium was achieved. Non-specific binding was defined as that binding remaining in the presence of 1000 nM of the appropriate unlabeled retinoic acid isomer. At the end of the incubation period, 50 μl of 6.25% hydroxyapitite was added in the appropriate wash buffer. The wash buffer consisted of 100 mM KCl, 10 mM Tris and either 5 mM CHAPS (RXRα, β, Γ) or 0.5% Triton X-100 (RARα, β, Γ). The mixture was vortexed and incubated for 10 minutes at 4° C., centrifuged and the supernatant removed. The hydroxyapitite was washed three more times with the appropriate wash buffer. The receptor-ligand complex was adsorbed by the hydroxyapitite. The amount of receptor-ligand complex was determined by liquid scintillation counting of hydroxyapitite pellet.
(§3) After correcting for non-specific binding, IC50 values were determined. […] The IC50 value was determined graphically from a loglogit plot of the data. The […] were determined by application of the Cheng-Prussof equation to the IC50 values, the labeled ligand concentration and the Kd of the labeled ligand.
(§4) The results of ligand binding assay are expressed in Kd numbers. (See Cheng et al. Biochemical Pharmacology Vol. 22 pp 3099-3108, expressly incorporated herein by reference.)

RXRβ = biological target: T2, RXRβ (Homo sapiens, UniProt P28702); test: Ligand binding assay, RXRβ
T2 construct: made in house; host or cells: Baculovirus expression (insect cell extract)
T2 sequence (P28702 1-533): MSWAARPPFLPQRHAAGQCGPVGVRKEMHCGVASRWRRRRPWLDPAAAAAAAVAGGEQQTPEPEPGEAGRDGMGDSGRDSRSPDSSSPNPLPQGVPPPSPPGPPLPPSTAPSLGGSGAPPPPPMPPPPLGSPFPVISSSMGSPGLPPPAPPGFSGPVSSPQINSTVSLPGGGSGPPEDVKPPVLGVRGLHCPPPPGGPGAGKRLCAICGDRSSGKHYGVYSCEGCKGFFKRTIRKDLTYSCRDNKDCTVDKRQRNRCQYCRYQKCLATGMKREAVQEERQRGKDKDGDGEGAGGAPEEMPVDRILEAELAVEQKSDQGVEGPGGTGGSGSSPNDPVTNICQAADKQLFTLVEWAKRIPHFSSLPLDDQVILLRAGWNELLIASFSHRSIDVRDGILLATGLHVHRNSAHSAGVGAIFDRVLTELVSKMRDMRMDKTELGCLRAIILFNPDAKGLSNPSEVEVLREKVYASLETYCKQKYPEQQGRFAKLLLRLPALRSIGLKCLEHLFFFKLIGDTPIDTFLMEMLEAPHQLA
Procedure: as §1, §2, §3, §4

RARβ = biological target: T3, RARβ (Homo sapiens, UniProt P10826); test: Ligand binding assay, RARβ
T3 construct: made in house; host or cells: Baculovirus expression (insect cell extract)
T3 sequence (P10826 1-455): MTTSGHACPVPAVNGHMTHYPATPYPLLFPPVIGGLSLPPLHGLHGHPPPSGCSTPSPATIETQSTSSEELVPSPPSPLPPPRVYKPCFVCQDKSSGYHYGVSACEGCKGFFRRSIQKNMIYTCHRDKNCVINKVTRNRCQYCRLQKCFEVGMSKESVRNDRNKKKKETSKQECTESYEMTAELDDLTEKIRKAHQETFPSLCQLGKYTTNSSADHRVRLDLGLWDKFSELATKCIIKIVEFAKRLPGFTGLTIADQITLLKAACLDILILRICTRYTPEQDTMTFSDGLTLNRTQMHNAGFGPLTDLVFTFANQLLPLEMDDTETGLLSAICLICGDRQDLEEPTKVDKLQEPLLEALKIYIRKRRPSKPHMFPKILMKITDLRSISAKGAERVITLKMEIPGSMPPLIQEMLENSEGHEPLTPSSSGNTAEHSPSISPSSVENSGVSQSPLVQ
Procedure: as §1, §2, §3, §4

RARΓ = biological target: T4, RARΓ (Homo sapiens, UniProt P13631); test: Ligand binding assay, RARΓ
T4 construct: made in house; host or cells: Baculovirus expression (insect cell extract)
T4 sequence (P13631 1-454): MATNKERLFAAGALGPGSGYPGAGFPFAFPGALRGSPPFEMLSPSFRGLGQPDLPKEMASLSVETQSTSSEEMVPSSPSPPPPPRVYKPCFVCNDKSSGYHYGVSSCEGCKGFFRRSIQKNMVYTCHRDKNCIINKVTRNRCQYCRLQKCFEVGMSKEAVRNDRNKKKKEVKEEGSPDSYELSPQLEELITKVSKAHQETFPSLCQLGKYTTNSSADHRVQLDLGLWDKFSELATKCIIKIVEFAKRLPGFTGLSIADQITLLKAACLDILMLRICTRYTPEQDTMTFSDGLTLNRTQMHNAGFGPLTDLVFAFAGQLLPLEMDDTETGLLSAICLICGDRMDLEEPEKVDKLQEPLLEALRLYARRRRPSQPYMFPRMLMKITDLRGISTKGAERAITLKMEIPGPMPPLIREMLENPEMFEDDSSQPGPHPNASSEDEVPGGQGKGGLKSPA
Procedure: as §1, §2, §3, §4

RXRα = biological target: T5, RXRα (Homo sapiens, UniProt P19793); test: Ligand binding assay, RXRα
T5 construct: made in house; host or cells: Baculovirus expression (insect cell extract)
T5 sequence (P19793 1-462): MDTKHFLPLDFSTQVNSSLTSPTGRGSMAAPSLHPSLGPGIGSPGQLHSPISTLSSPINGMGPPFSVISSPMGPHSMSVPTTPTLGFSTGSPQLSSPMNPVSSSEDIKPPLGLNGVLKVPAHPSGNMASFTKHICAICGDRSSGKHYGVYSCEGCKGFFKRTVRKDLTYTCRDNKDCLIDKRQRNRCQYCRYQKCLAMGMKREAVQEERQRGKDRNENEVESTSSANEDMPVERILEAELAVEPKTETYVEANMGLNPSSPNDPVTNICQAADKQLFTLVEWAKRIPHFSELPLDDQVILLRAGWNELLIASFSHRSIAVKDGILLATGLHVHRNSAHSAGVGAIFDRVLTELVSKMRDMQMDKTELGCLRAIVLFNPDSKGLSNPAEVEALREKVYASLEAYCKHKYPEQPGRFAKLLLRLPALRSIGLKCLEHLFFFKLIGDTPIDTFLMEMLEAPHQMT
Procedure: as §1, §2, §3, §4

RARα = biological target: T6, RARα (Homo sapiens, UniProt P10276); test: Ligand binding assay, RARα
T6 construct: made in house; host or cells: Baculovirus expression (insect cell extract)
T6 sequence (P10276 1-462): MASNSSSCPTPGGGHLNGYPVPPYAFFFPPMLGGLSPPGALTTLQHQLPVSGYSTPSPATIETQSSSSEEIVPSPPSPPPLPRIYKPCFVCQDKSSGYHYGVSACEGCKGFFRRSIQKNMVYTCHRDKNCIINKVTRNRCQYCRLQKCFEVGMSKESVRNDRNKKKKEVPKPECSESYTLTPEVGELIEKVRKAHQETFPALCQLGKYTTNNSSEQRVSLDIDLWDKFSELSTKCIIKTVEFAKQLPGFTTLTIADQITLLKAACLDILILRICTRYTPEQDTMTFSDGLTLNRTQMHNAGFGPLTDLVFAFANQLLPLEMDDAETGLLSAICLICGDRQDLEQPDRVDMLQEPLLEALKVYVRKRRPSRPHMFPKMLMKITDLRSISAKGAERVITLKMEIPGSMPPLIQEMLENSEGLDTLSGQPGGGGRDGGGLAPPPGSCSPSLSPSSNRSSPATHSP
Procedure: as §1, §2, §3
The results of ligand binding assay are expressed in Kd numbers. […]

[1] = system: AML-193 cells (acute monocytic leukemia); test: AML 193 cell culture assay (3H-thymidine incorporation); format: cell-based, human; conditions: FIG. 2; low concentrations
Procedure: All trans-retinoic acid (t-RA) (Sigma Chemicals Co., St. Louis, Mo.) was stored at −70° C. Prior to each experiment the compound was dissolved in 100% ethanol at 1 mM and diluted in culture medium immediately before use. All experiments were performed in subdued light. Controls were assayed using the same concentration of ethanol as present in the experimental plates and this concentration of diluent had no effect in either assay.
AML-193 was established from the blast cells classified as M5 Acute Monocyte Leukemia. The growth factor, […] (GM-CSF) was required to establish this cell line and growth factors are necessary for its continuous proliferation in chemically defined medium. AML-193 cells were grown and maintained in Iscove's modified Dulbecco's medium supplemented with 10% fetal bovine serum, glutamine and antibiotics with 5 μg/ml insulin (Sigma Chemical Co.) and 2 ng/ml rh GM-CSF (R and D Systems). The cells were diluted to a concentration of 3×10^5/ml twice a week.
AML-193 cells were plated in a 96 well round bottom microtiter plate (Costar) at a density of 1,000 cells/well. To appropriate wells, retinoid test compounds were added at the final concentrations indicated for a final volume of 150 μl/well. The plates were incubated for 96 hours at 37° C. in a humidified atmosphere of 5% CO2 in air. Subsequently, 1 μCi of [5′-^3H]-thymidine (Amersham, U.K., 43 Ci/mmol specific activity) in 25 μl culture medium was added to each well and the cells were incubated for an additional 6 hours.
The cell lines were then processed as follows: the cellular DNA was precipitated with 10% trichloroacetic acid onto glass fiber filter mats using a SKATRON multi-well cell harvester (Skatron Instruments, Sterling Va.). Radioactivity incorporated into DNA, as a direct measurement of cell growth, was measured by liquid scintillation counting. The numbers represent the mean disintegrations per minute of incorporated thymidine from triplicate wells±SEM.

| Compound | Kd (RXRΓ) | Kd (RXRβ) | Kd (RARβ) | Kd (RARΓ) | Kd (RXRα) | Kd (RARα) | growth of AML 193 cells at low concentrations [1] |
| --- | --- | --- | --- | --- | --- | --- | --- |
| CC(C)(C)c1cc(C(=O)Nc2ccc(C(=O)O)c([N+](=O)[O-])c2)cc(C(C)(C)C)n1 [Compound 54] | > 1 µM | > 1 µM | > 1 µM | > 1 µM | > 1 µM |  |  |
| 2-Fluoro-4-[(3′,5′-di-t-butyl)phenylcarbamoyl]benzoic acid [Compound 46] | > 1 µM | > 1 µM |  |  | > 1 µM |  |  |
| CC(C)(C)c1cc(C(=O)Nc2cc(F)c(C(=O)O)c(F)c2)cc(C(C)(C)C)c1 [Compound 52] | > 1 µM | > 1 µM | > 1 µM | > 1 µM | > 1 µM |  |  |
| CC1(C)CC=C(C#N)c2cc(C#Cc3ccc(C(=O)O)cc3)ccc21 [AGN 193090, 4-[(8-cyano-5,6-dihydro-5,5-dimethylnaphth-2-yl)ethynyl]benzoic acid, reference compound] |  |  | 0.034 µM | 0.077 µM |  | 0.109 µM | do not inhibit but rather at these low concentrations even stimulate such cell growth |
| CC1(C)CCC(C)(C)c2c1cc(C(=O)Nc1ccc(C(=O)O)c(F)c1)c(O)c2Br [Compound 30] |  |  |  |  |  | < 0.003 µM |  |
| CC(C)(C)c1cc(C(=O)Nc2cc(F)c(C(=O)O)c(F)c2)cc(C(C)(C)C)n1 [Compound 50] | > 1 µM | > 1 µM | > 1 µM | > 1 µM | > 1 µM |  |  |
| CC(C)(C)C=C1CCC(C)(C)c2ccc(C#Cc3ccc(C(=O)O)cc3)cc21 [AGN 193459, 4-[(5,6-dihydro-5,5-dimethylnaphth-7(6H)-8-(1-2,2-dimethylpropylidene)naphth-2-yl)ethynyl]benzoic acid, reference compound] |  |  | 0.002 µM | 0.007 µM |  | 0.006 µM | do not inhibit but rather at these low concentrations even stimulate such cell growth |

From patent US6610744B2, “Methods of treatment with compounds having RARα receptor specific or selective activity” (Allergan, Inc., priority 1995, dated 2003)
